Experimental findings from patent publication US11820766B2, “Monoacylglycerol lipase modulators” (Janssen Pharmaceutica NV, priority 2018, dated 2023) are described below.

Structures can show the parent of a compound that is named as a salt.

One assay concerns the target T1, human MGL from HeLa cells (Homo sapiens, UniProt Q99685).
T1 construct: combining endogenously expressed MGL from HeLa cells with test compounds; endogenous in cells; host or cells: HeLa cells / cell homogenates
T1 sequence (Q99685 1-303): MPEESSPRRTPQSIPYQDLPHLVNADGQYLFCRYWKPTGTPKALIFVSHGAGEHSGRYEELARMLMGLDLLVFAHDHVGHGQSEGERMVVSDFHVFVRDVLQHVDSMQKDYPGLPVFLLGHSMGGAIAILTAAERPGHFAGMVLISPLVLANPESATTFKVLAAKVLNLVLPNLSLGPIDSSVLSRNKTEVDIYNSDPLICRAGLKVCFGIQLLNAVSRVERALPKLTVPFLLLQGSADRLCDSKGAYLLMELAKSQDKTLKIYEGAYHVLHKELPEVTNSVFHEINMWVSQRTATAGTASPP
Briefly: In vitro MGL activity assay: [glycerol-1,3-3H]-oleyl glycerol cleavage by MGL from HeLa cells. The following applies: 300 nM [Glycerol-1,3-3H]-oleyl glycerol, one hour. The assay is classed as biochemical. The text has this: MGL is the predominant hydrolase in HeLa cells/cell homogenates.
The compound `Cc1ccc2c(C(=O)N3CCc4c(nn(C)c4-c4cc(F)c(F)c(F)c4)[C@@H]3C)c[nH]c2c1` [Example 360, [(7S)-2,7-Dimethyl-3-(3,4,5-trifluorophenyl)-5,7-dihydro-4H-pyrazolo[3,4-c]pyridin-6-yl]-(6-methyl-1H-indol-3-yl)methanone] gave an IC50 of 46.8 nM.
Still for that read-out and setting: the result for `C[C@H]1c2nn(C)c(-c3ccc(F)cc3F)c2CCN1C(=O)c1ccc2ncccc2c1` [Example 502, [(7S)-3-(2,4-Difluorophenyl)-2,7-dimethyl-5,7-dihydro-4H-pyrazolo[3,4-c]pyridin-6-yl]-(6-quinolyl)methanone] reads 106 nM; that for `C[C@H]1c2nn(C)c(-c3cc(F)c(F)c(F)c3)c2CCN1C(=O)c1ccc2c(c1)OCC(=O)N2C` [Example 590, 7-[(7S)-2,7-Dimethyl-3-(3,4,5-trifluorophenyl)-5,7-dihydro-4H-pyrazolo[3,4-c]pyridine-6-carbonyl]-4-methyl-1,4-benzoxazin-3-one.TFA salt], 173 nM; that for `C[C@H]1c2nn(C)c(-c3cccc4c3OCC4)c2CCN1C(=O)c1ccc2ncccc2c1` [Example 539, [(7S)-3-(2,3-Dihydrobenzofuran-7-yl)-2,7-dimethyl-5,7-dihydro-4H-pyrazolo[3,4-c]pyridin-6-yl]-(6-quinolyl)methanone], 55.2 nM.
Still for that read-out and setting: the result for `Cc1nc2c(C)ccnn2c1C(=O)N1CCc2c(nn(C)c2-c2cc(F)c(F)c(F)c2)[C@@H]1C` [Example 456, (2,8-Dimethylimidazo[1,2-b]pyridazin-3-yl)-[(7S)-2,7-dimethyl-3-(3,4,5-trifluorophenyl)-5,7-dihydro-4H-pyrazolo[3,4-c]pyridin-6-yl]methanone] reads 25.4 nM.
Turning to `C[C@H]1c2nn(C)c(-c3cc(F)c(F)c(F)c3)c2CCN1C(=O)c1cnn2cc(F)ccc12` [Example 384, [(7S)-2,7-Dimethyl-3-(3,4,5-trifluorophenyl)-5,7-dihydro-4H-pyrazolo[3,4-c]pyridin-6-yl]-(6-fluoropyrazolo[1,5-a]pyridin-3-yl)methanone], the IC50 stood at 44 nM. Against the preceding compound, the IC50 is about 1.7-fold higher.
Regarding `C[C@H]1c2nn(C)c(-c3cccc4cc[nH]c34)c2CCN1C(=O)c1ccc2ncccc2c1` [Example 531, [(7S)-3-(1H-Indol-7-yl)-2,7-dimethyl-5,7-dihydro-4H-pyrazolo[3,4-c]pyridin-6-yl]-(6-quinolyl)methanone], the midpoint of inhibition, the IC50, lay at 22.9 nM.
On the same count and under the same terms, the result for `C[C@H]1c2nn(C)c(-c3cc(F)c(F)c(F)c3)c2CCN1C(=O)c1ccn2ccncc12` [Example 416, [(7S)-2,7-Dimethyl-3-(3,4,5-trifluorophenyl)-5,7-dihydro-4H-pyrazolo[3,4-c]pyridin-6-yl]-pyrrolo[1,2-a]pyrazin-8-yl-methanone] reads 7.18 nM.
Still for that read-out and setting: the result for `Cc1nn2c(c1C(=O)N1CCc3c(nn(C)c3-c3cc(F)c(F)c(F)c3)[C@@H]1C)COC(C)(C)C2` [Example 556, [(7S)-2,7-Dimethyl-3-(3,4,5-trifluorophenyl)-5,7-dihydro-4H-pyrazolo[3,4-c]pyridin-6-yl]-(2,6,6-trimethyl-4,7-dihydropyrazolo[5,1-c][1,4]oxazin-3-yl)methanone] reads 803 nM.
The same measure, in the same setting: next, `C[C@H]1c2nn(C)c(-c3cc(F)c(F)c(F)c3)c2CCN1C(=O)c1c[nH]c2c(F)cccc12` [Example 359, [(7S)-2,7-Dimethyl-3-(3,4,5-trifluorophenyl)-5,7-dihydro-4H-pyrazolo[3,4-c]pyridin-6-yl]-(7-fluoro-1H-indol-3-yl)methanone]: 31 nM; `COc1c(C(=O)N2CCc3c(nn(C)c3-c3cc(F)c(F)c(F)c3)[C@@H]2C)ccnc1C` [Example 599, [(7S)-2,7-Dimethyl-3-(3,4,5-trifluorophenyl)-5,7-dihydro-4H-pyrazolo[3,4-c]pyridin-6-yl]-(3-methoxy-2-methyl-4-pyridyl)methanone]: 71.4 nM.
For the compound `C[C@H]1c2nn(C)c(-c3cc(F)c(F)c(F)c3)c2CCN1C(=O)c1ncnc2ccccc12` [Example 482, [(7S)-2,7-Dimethyl-3-(3,4,5-trifluorophenyl)-5,7-dihydro-4H-pyrazolo[3,4-c]pyridin-6-yl]-quinazolin-4-yl-methanone], half-maximal inhibition (IC50) required 6.22 nM.

Still in this assay, the particulars now being: 300 nM [Glycerol-1,3-3H]-oleyl glycerol, one hour incubation.
Regarding `CC(C)c1c(C(=O)N2CCc3c(nn(C)c3-c3cc(F)c(F)c(F)c3)[C@@H]2C)cnn1C` [Example 328, [(7S)-2,7-Dimethyl-3-(3,4,5-trifluorophenyl)-5,7-dihydro-4H-pyrazolo[3,4-c]pyridin-6-yl]-(5-isopropyl-1-methyl-pyrazol-4-yl)methanone], half-maximal inhibition (IC50) was put at 1090 nM.
Still for that read-out and setting: next, `C[C@H]1c2nn(C)c(-c3cc(F)cc(F)c3)c2CCN1C(=O)c1ccc2nccnc2c1` (single isomer, unassigned) [Example 168]: 7.04 nM; `Cn1nc2c(c1-c1ccccc1)CCN(C(=O)c1cccc3ncnn13)C2` [Example 85, [1,2,4]Triazolo[1,5-a]pyridin-5-yl(2-methyl-3-phenyl-2,4,5,7-tetrahydro-6H-pyrazolo[3,4-c]pyridin-6-yl)methanone]: 7140 nM; `Cc1c(C(=O)N2CCc3c(nn(C)c3-c3ccccc3)C2)cccc1N1CCOCC1` [Example 19, (2-Methyl-3-morpholinophenyl)(2-methyl-3-phenyl-2,4,5,7-tetrahydro-6H-pyrazolo[3,4-c]pyridin-6-yl)methanone]: 4820 nM.
The same measure, in the same setting: next, `CC1c2nn(C)c(-c3ccc4c(ccn4C)c3)c2CCN1C(=O)c1ccc2ncccc2c1` (stereo not shown) [Example 252, (2,7-Dimethyl-3-(1-methyl-1H-indol-5-yl)-2,4,5,7-tetrahydro-6H-pyrazolo[3,4-c]pyridin-6-yl)(quinolin-6-yl)methanone]: 631 nM; `CN1CCOc2cc(C(=O)N3CCc4c(nn(C)c4-c4ccccc4)C3)ccc21` [Example 27, (4-Methyl-3,4-dihydro-2H-benzo[b][1,4]oxazin-7-yl)(2-methyl-3-phenyl-2,4,5,7-tetrahydro-6H-pyrazolo[3,4-c]pyridin-6-yl)methanone]: 290 nM; `Cc1c(F)cc(-c2c3c(nn2C)[C@H](C)N(C(=O)c2ccc4nccnc4c2)CC3)cc1F` [Example 190, (S)-(3-(3,5-Difluoro-4-methylphenyl)-2,7-dimethyl-2,4,5,7-tetrahydro-6H-pyrazolo[3,4-c]pyridin-6-yl)(quinoxalin-6-yl)methanone]: 133 nM.
Still for that read-out and setting: next, `CC1c2nn(C)c(-c3cc(F)cc(F)c3)c2CCN1C(=O)c1ccc2nccc(Br)c2c1` (stereo not shown) [Example 162, (4-Bromoquinolin-6-yl)(3-(3,5-difluorophenyl)-2,7-dimethyl-2,4,5,7-tetrahydro-6H-pyrazolo[3,4-c]pyridin-6-yl)methanone]: 11.3 nM; `COc1cnc(C(=O)N2CCc3c(nn(C)c3-c3cc(F)c(F)c(F)c3)[C@@H]2C)cn1` [Example 326, [(7S)-2,7-Dimethyl-3-(3,4,5-trifluorophenyl)-5,7-dihydro-4H-pyrazolo[3,4-c]pyridin-6-yl]-(5-methoxypyrazin-2-yl)methanone]: 522 nM.
With `COc1cncc(C(=O)N2CCc3c(nn(C)c3-c3cc(F)c(F)c(F)c3)[C@@H]2C)c1` [Example 203, (S)-(2,7-Dimethyl-3-(3,4,5-trifluorophenyl)-2,4,5,7-tetrahydro-6H-pyrazolo[3,4-c]pyridin-6-yl)(5-methoxypyridin-3-yl)methanone], the IC50 amounted to 67.5 nM. Compared with the last compound, the IC50 is about 7.7-fold lower.
